In the experiment the target is T1, human recombinant HDAC6 (Homo sapiens, UniProt Q9UBN7).
T1 construct: purchased Calbiochem 382180
T1 sequence (Q9UBN7 1-1215): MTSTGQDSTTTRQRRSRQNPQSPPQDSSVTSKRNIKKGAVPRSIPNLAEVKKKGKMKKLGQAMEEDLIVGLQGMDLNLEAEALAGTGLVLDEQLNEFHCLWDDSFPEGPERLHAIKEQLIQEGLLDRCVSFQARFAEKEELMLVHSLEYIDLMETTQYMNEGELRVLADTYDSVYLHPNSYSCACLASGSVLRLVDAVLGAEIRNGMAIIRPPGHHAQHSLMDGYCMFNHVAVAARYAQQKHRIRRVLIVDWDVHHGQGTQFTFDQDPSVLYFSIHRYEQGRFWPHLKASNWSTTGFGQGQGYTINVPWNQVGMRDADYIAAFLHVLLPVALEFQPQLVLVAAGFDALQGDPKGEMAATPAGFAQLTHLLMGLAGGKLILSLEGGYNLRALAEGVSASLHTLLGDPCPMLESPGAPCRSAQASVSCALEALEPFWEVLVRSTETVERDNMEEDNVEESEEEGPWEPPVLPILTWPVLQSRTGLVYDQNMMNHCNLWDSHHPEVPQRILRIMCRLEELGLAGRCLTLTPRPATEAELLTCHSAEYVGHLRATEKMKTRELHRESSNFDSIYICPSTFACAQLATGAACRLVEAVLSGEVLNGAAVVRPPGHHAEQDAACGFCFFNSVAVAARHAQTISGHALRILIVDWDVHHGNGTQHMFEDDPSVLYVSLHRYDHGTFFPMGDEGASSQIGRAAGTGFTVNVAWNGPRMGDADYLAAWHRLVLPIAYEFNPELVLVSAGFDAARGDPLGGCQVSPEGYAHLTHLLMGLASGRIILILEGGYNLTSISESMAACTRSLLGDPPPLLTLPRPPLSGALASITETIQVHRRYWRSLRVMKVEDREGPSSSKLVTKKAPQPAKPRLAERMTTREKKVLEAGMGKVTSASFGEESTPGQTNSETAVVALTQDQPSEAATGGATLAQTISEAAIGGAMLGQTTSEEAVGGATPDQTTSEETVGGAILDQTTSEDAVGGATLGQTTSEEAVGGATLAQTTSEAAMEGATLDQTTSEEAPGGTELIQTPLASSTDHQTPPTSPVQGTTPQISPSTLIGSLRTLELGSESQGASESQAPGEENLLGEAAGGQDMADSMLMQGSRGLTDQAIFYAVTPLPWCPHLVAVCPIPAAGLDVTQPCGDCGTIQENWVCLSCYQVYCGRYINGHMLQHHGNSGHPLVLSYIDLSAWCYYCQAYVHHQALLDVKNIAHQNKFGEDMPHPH
Nature of the experiment: HDAC6 enzyme activity inhibition assay (HDAC Fluorimetric Drug Discovery Kit). Format: biochemical. The settings on record: for HDAC6 selectivity (fold): HDAC1 vs HDAC6; for IC50: same protocol as the HDAC1 enzyme activity test. The method in brief: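 Recombinant enzyme (0.3 μg) was incubated with 5-fold serially diluted compound and 10 μM Fluor de Lys-SIRT1 substrate for 60 min at 30° C. Developer II was then added for 30 min, fluorescence read at Ex 360/Em 460, and IC50 values were calculated.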

In the case of `CS(=O)(=O)N(Cc1ccc(-c2nnc(C(F)F)o2)cc1F)c1cccc(Cl)c1` [Compound 11191, N-(3-chlorophenyl)-N-(4-(5-(difluoromethyl)-1,3,4-oxadiazol-2-yl)-2-fluorobenzyl)methanesulfonamide], the “HDAC6 selectivity (fold)” value is 5000 fold and the IC50 was determined as 20 nM.

Consider `Cc1cccc(N(Cc2ccc(-c3nnc(C(F)F)o3)cc2)S(=O)(=O)C2CCN([C@H]3CC[C@H](C(F)(F)F)CC3)CC2)c1` [Compound 11697, N-(4-(5-(difluoromethyl)-1,3,4-oxadiazol-2-yl)benzyl)-N-(m-tolyl)-1-((1r,4r)-4-(trifluoromethyl)cyclohexyl)piperidine-4-sulfonamide], for which the “HDAC6 selectivity (fold)” value is reported as 101 fold and the IC50 came out at 988 nM.

As for `CCCCS(=O)(=O)N(Cc1ccc(-c2nnc(C(F)F)o2)cc1F)c1ccccc1` [Compound 11290, N-(4-(5-(difluoromethyl)-1,3,4-oxadiazol-2-yl)-2-fluorobenzyl)-N-phenylbutane-1-sulfonamide], the “HDAC6 selectivity (fold)” value stood at 2041 fold and the IC50 came out at 49 nM.

As to `O=S(=O)(CCCN1CCCCC1)N(Cc1ccc(-c2nnc(C(F)F)o2)cc1)c1ccccc1` [Compound 11657, N-(4-(5-(difluoromethyl)-1,3,4-oxadiazol-2-yl)benzyl)-N-phenyl-3-(piperidin-1-yl)propane-1-sulfonamide], the “HDAC6 selectivity (fold)” value is on record as 1219 fold and the IC50 came to 82 nM.

Regarding `O=S(=O)(CCN1CCOCC1)N(Cc1ccc(-c2nnc(C(F)F)o2)cc1)c1ccccc1` [Compound 11655, N-(4-(5-(difluoromethyl)-1,3,4-oxadiazol-2-yl)benzyl)-2-morpholino-N-phenylethanesulfonamide], the “HDAC6 selectivity (fold)” value is 1724 fold and the IC50 is 58 nM.

In the case of `CC(=O)c1cccc(N(Cc2ccc(-c3nnc(C(F)F)o3)cc2F)S(C)(=O)=O)c1` [Compound 11254, N-(3-acetylphenyl)-N-(4-(5-(difluoromethyl)-1,3,4-oxadiazol-2-yl)-2-fluorobenzyl)methanesulfonamide], the “HDAC6 selectivity (fold)” value is 3448 fold and the IC50 amounted to 29 nM.

For the molecule `O=S(=O)(CCn1cncn1)N(Cc1ccc(-c2nnc(C(F)F)o2)cc1)c1ccccc1` [Compound 11809, N-(4-(5-(difluoromethyl)-1,3,4-oxadiazol-2-yl)benzyl)-N-phenyl-2-(1H-1,2,4-triazol-1-yl)ethane-1-sulfonamide], the “HDAC6 selectivity (fold)” value amounted to 3222 fold and the IC50 came to 30.1 nM.

`CC(C)(C)OC(=O)N1CCC(N(Cc2ccc(-c3nnc(C(F)F)o3)cc2F)S(C)(=O)=O)CC1` [Compound 11338, tert-butyl 4-(N-(4-(5-(difluoromethyl)-1,3,4-oxadiazol-2-yl)-2-fluorobenzyl)methylsulfonamido)piperidine-1-carboxylate]: the “HDAC6 selectivity (fold)” value came to 195 fold and the IC50 was found to be 513 nM.

Turning to `CS(=O)(=O)N(Cc1ccc(-c2nnc(C(F)F)o2)cc1)c1nc2ccccc2s1` [Compound 11740, N-(benzo[d]thiazol-2-yl)-N-(4-(5-(difluoromethyl)-1,3,4-oxadiazol-2-yl)benzyl)methanesulfonamide], the “HDAC6 selectivity (fold)” value is given as 188 fold and the IC50 was 531 nM.

Take `CC(=O)N1Cc2ccc(N(Cc3ccc(-c4nnc(C(F)F)o4)cc3)S(C)(=O)=O)cc2C1` [Compound 11732, N-(2-acetylisoindolin-5-yl)-N-(4-(5-(difluoromethyl)-1,3,4-oxadiazol-2-yl)benzyl)methanesulfonamide]: the “HDAC6 selectivity (fold)” value was determined as 184 fold and the IC50 worked out at 542 nM.

With `CCS(=O)(=O)N(Cc1ccc(-c2nnc(C(F)F)o2)cn1)c1ccccc1` [Compound 11412, N-((5-(5-(difluoromethyl)-1,3,4-oxadiazol-2-yl)pyridin-2-yl)methyl)-N-phenylethanesulfonamide], the “HDAC6 selectivity (fold)” value is reported as 8333 fold and the IC50 worked out at 12 nM.

For `COCC(C)CS(=O)(=O)N(Cc1ccc(-c2nnc(C(F)F)o2)cc1F)c1ccccc1` (stereo not drawn) [Compound 11288], the “HDAC6 selectivity (fold)” value worked out at 2128 fold and the IC50 turned out to be 47 nM.

On to `O=S(=O)(CCCN1CCC(F)(F)C1)N(Cc1ccc(-c2nnc(C(F)F)o2)cn1)c1ccccc1` [Compound 11719, N-((5-(5-(difluoromethyl)-1,3,4-oxadiazol-2-yl)pyridin-2-yl)methyl)-3-(3,3-difluoropyrrolidin-1-yl)-N-phenylpropane-1-sulfonamide], for which the “HDAC6 selectivity (fold)” value turned out to be 1177 fold and the IC50 was determined as 84.9 nM.

As to `CN1CCc2nc(N(Cc3ccc(-c4nnc(C(F)F)o4)cc3)S(C)(=O)=O)sc2C1` [Compound 11750, N-(4-(5-(difluoromethyl)-1,3,4-oxadiazol-2-yl)benzyl)-N-(5-methyl-4,5,6,7-tetrahydrothiazolo[5,4-c]pyridin-2-yl)methanesulfonamide], the “HDAC6 selectivity (fold)” value was determined as 77 fold and the half-maximal inhibitory concentration (IC50) turned out to be 1290 nM.

As to `O=S(=O)(c1cccnc1)N(Cc1ccc(-c2nnc(C(F)F)o2)cc1)c1ccccc1` [Compound 11152, N-(4-(5-(difluoromethyl)-1,3,4-oxadiazol-2-yl)benzyl)-N-phenylpyridine-3-sulfonamide], the “HDAC6 selectivity (fold)” value worked out at 1724 fold and the IC50 was 58 nM.

In the case of `CS(=O)(=O)N(Cc1cnc(-c2nnc(C(F)(F)F)o2)nc1)c1ccccc1` [Compound 11606, N-phenyl-N-((2-(5-(trifluoromethyl)-1,3,4-oxadiazol-2-yl)pyrimidin-5-yl)methyl)methanesulfonamide], the “HDAC6 selectivity (fold)” value is 66 fold and the IC50 was 1520 nM.

For `CS(=O)(=O)N(Cc1ccc(-c2nnc(C(F)F)o2)cc1F)c1ccccc1Cl` [Compound 11280, N-(2-chlorophenyl)-N-(4-(5-(difluoromethyl)-1,3,4-oxadiazol-2-yl)-2-fluorobenzyl)methanesulfonamide], the “HDAC6 selectivity (fold)” value stood at 1266 fold and the IC50 stood at 79 nM.

On to `O=S(=O)(C1CCN(C2COC2)CC1)N(Cc1ccc(-c2nnc(C(F)F)o2)cc1F)c1ccccc1` [Compound 11625, N-(4-(5-(difluoromethyl)-1,3,4-oxadiazol-2-yl)-2-fluorobenzyl)-1-(oxetan-3-yl)-N-phenylpiperidine-4-sulfonamide], for which the “HDAC6 selectivity (fold)” value came out at 719 fold and the IC50 turned out to be 139 nM.

In the case of `CS(=O)(=O)N(Cc1ccc(-c2nnc(C(F)(F)F)o2)c(F)c1)c1cccnc1` [Compound 11133, N-(3-fluoro-4-(5-(trifluoromethyl)-1,3,4-oxadiazol-2-yl)benzyl)-N-(pyridin-3-yl)methanesulfonamide], the “HDAC6 selectivity (fold)” value turned out to be 290 fold and the IC50 is 345 nM.

In the case of `CS(=O)(=O)N(Cc1ccc(-c2nnc(C(F)(F)F)o2)cc1F)c1ccccc1C(F)(F)F` [Compound 11218, N-(2-fluoro-4-(5-(trifluoromethyl)-1,3,4-oxadiazol-2-yl)benzyl)-N-(2-(trifluoromethyl)phenyl)methanesulfonamide], the “HDAC6 selectivity (fold)” value is given as 429 fold and the IC50 turned out to be 233 nM.

As for `COc1ccc(S(=O)(=O)NCc2ccc(-c3nnc(C(F)(F)F)o3)cc2)cc1` [Compound 11078, 4-methoxy-N-(4-(5-(trifluoromethyl)-1,3,4-oxadiazol-2-yl)benzyl)benzenesulfonamide], the “HDAC6 selectivity (fold)” value stood at 29 fold and the IC50 is 3470 nM.

Broadly, the IC50 is the concentration that inhibits the measured activity by half.

For the origin of these results see patent US10538498B2, “1,3,4-oxadiazole sulfonamide derivative compounds as histone deacetylase 6 inhibitor, and the pharmaceutical composition comprising the same” (Chong Kun Dang Pharmaceutical Corp., priority 2015, dated 2020).
